The record followed here is patent US12122821B2, “Regulation of glucose metabolism using anti-CGRP antibodies” (H. LUNDBECK A/S, priority 2013, dated 2024).

Common to all, as to assay type: in vivo
Assay [1] relates to Zucker diabetic fatty (ZDF) rat. Put plainly: Plasma triglycerides, free fatty acids and cholesterol in ZDF rats (Example 3). Particulars: for increase of plasma HDL-cholesterol / decrease of plasma non HDL-cholesterol levels: vs vehicle; for lowering of plasma free fatty acids levels: vs vehicle ZDF. Here is the method:
(§1) For the groups treated with AB14, the antibody was administered once weekly via the caudal vein (i.v., 5 mL/kg) on days 1, 8, 15, and 22 at two different doses 20 mg/kg/week (groups 3 and 7) or 60 mg/kg/week (groups 4 and 8). All other groups were treated once weekly with vehicle 1 (i.v., 5 mL/kg). The intravenous treatments were performed in the morning on day 1, 8, 15, and 22 while under isoflurane anaesthesia. The volume of administration was individually adapted according to the most recent body weight.
(§2) All other groups were treated daily with vehicle 2 (p.o., 5 mL/kg) for 28 days. The most recent body weight was used to calculate the average volume of administration in each group.
(§3) A fasting (6 hours on day 0 from 8:00 am to 02:00 pm, and overnight on day 12, 19 and 26 from ˜6:00 pm to ˜8:00 am) was performed before each blood collection. Blood was collected at ˜2:00 pm, from the tip of the tail, on day 0 (before screening, 150 μL, potassium EDTA), and at ˜8:00 am prior to dosing on days 12 (110 μL, potassium EDTA), 19 (150 μL, potassium EDTA) and 26, (110 μL, potassium EDTA).
(§4) Fasting blood glucose (glucometers) was measured on days 0, 12, 19, and 26. Fasting plasma insulin, peptide-C (ELISA method), free fatty acids, triglycerides, total cholesterol (colorimetric method), and HDL-cholesterol (phosphotungstate precipitation, colorimetric method) were measured on day 0, and prior to dosing on days 12, 19, and day 26. Non HDL-cholesterol was calculated as total cholesterol—HDL-cholesterol. Fructosamine was measured on days 0, 19 and 28. HbA1c (DCA 2000) was measured on days 0 and 28.

Assay [2] has the same test system. Kind of assay: Fasting blood glucose, plasma insulin, C-peptide and HOMA-IR in ZDF rats (Example 3). To be noted: vs vehicle ZDF. Here is the method:
as §1, §2, §3, §4

Assay [3] has the same test system. Kind of assay: Oral glucose tolerance test on day 26 in ZDF rats (Example 3). The method, then:
The oral glucose tolerance test (OGTT) was performed as follows. On day 25, rats were fasted at ˜6:00 pm and an oral glucose tolerance test was performed the day after (on day 26). At ˜8:00 am (T-60) a blood collection (110 μL, EDTA) was performed for biochemical parameters measurements. One hour after (˜09:00 am), an oral glucose bolus (1.5 g/kg) was administered (T0). Blood glucose was measured (glucometer or colorimetric method in case of high glycaemia) on T-60, T0, T15, T30, T60, T90, T120, and T180 minutes. Area under the curve (AUC) was calculated based on the blood glucose values measured at T0. Plasma insulin and C-peptide were measured (ELISA method) on T-60, T15 (·40 μL of blood, EDTA), and T30 minutes (·40 μL of blood, EDTA).

Assay [4] shares this test system. Kind of assay: Body weight and food intake in ZDF rats (Example 3). To be noted: pioglitazone 10 mg/kg/day, vs vehicle ZDF. Here is the method:
as §1, with “weight. […] All other groups were treated daily with vehicle 2 (p.o., 5 mL/kg) for 28 days. The most recent body weight was used to calculate the average volume of administration in each group. Body weight was measured twice a week during the 4 weeks of treatment. Food consumption was measured just before the screening procedure and then twice weekly over 24 h during the first three weeks of treatment. Food consumption was measured once weekly during the week of OGTT (week 4).” for “weight.”

Assay [5] has the same test system. Kind of assay: Fructosamine and HbA1c in ZDF rats (Example 3). To be noted: vs vehicle ZDF. The method, then: as §1, §2, §4
Where [6] appears, read: day 12, pioglitazone 10 mg/kg/day.
The mark [7] stands for this setting: day 19, pioglitazone 10 mg/kg/day.
Where [8] appears, read: day 26, pioglitazone 10 mg/kg/day.
[9] abbreviates: days 12, 19 and 26, pioglitazone 10 mg/kg/day.
The mark [10] stands for this setting: OGTT day 26, pioglitazone 10 mg/kg/day, vs vehicle ZDF.

With `CCc1ccc(CCOc2ccc(CC3SC(=O)NC3=O)cc2)nc1` (centres unmarked) [pioglitazone], the “increase of plasma HDL-cholesterol” value worked out at 38% in assay [1] (setting [6]), 17% in assay [1] (setting [7]) and 19% in assay [1] (setting [8]). In addition, the “lowering of plasma free fatty acids levels” value in assay [1] (setting [6]) turned out to be 35%; in assay [1] (setting [7]), 17%; in assay [1] (setting [8]), 30%. The “decrease of plasma non HDL-cholesterol levels” value in assay [1] (setting [7]) is listed as 49%; in assay [1] (setting [8]), 47%. In addition, the “reduction of HOMA-IR” value in assay [2] (setting [6]) amounted to 67%; in assay [2] (setting [7]), 62%; in assay [2] (setting [8]), 54%. Further, in assay [2] (setting [9]), the “plasma C-peptide levels” value is “no effect”. Also, the plasma insulin levels entry in assay [2] (setting [9]) is “no effect”. Besides, in assay [3] (setting [10]), the “increase of C-peptide secretion (relative to T-60) at T15” value was determined as 21%. Also, in assay [3] (setting [10]), the “increase of C-peptide secretion (relative to T-60) at T30” value turned out to be 22%. Further, in assay [3] (setting [10]), the “increase of insulin secretion (relative to T-60) at T30” value worked out at 5%. Also, the “increase of insulin secretion (relative to T-60) at T15” value in assay [3] (OGTT day 26, vs vehicle ZDF (pioglitazone 10 mg/kg/day)) was found to be 20%. The “reduction in blood glucose AUC (OGTT)” value in assay [3] (day 26, pioglitazone 10 mg/kg/day, metformin 200 mg/kg/day, vs vehicle ZDF) worked out at 54%. Moreover, the “body weight gain at the end of the treatment” value in assay [4] amounted to 3 fold. In addition, the “increase of cumulative food intake” value in assay [4] (NS) is reported as 14%. Also, the “decrease of HbA1c” value in assay [5] (28 days, pioglitazone 10 mg/kg/day, metformin 200 mg/kg/day) was 44%. Besides, the “reduction of fructosamine levels” value in assay [5] (day 19, pioglitazone 10 mg/kg/day, metformin 200 mg/kg/day) is listed as 30%; in assay [5] (day 28, pioglitazone 10 mg/kg/day) it was 25%.
